The source of these data is publication PMC9698483, “Berbamine Reduces Chloroquine-Induced Itch in Mice through Inhibition of MrgprX1” (International Journal of Molecular Sciences, 2022).

In one data set the test system is PAR2-AP-induced itch. The data set is described as follows: PAR2-AP-induced pruritus in mice (scratching bouts). Type of data set: in vivo, BALB/c mice. As to conditions: 30 mg/kg i.p., PAR2-AP 100 μg/50 μL. The protocol: To investigate the antipruritic effect of berbamine, we observed the effect of berbamine on pruritogen-induced scratching behavior in BALB/c mice. Mice were transferred to clear cages and treated with berbamine intraperitoneally after a 30 min acclimatization period. Mouse behavior was recorded for 30 min right after the subcutaneous injection of pruritogens to the nape 30 min after berbamine treatment (Figure 7A). […] We further investigated the effect of berbamine on pruritus caused by other pruritogens.
Figure 7 Effect of berbamine on acute pruritogen-induced pruritus in mice: (A) Scheme of acute pruritogen-induced pruritus mouse model. […] Statistical significance of differences between each group and CQ group was assessed using one-way ANOVA with Tukey’s post hoc test. * p < 0.05, ** p < 0.01, *** p < 0.001. […] Statistical significance of differences was determined using Student’s t-test. […]
[…] six-week-old BALB/c male mice were purchased from DBL (Chungcheong-do, Republic of Korea), and an additional 1 week was given for accommodation. […] After 30 min, pruritogen compounds (i.e., CQ, histamine, PAR2-AP, and DCA) were subcutaneously administered into the nape, and scratching bouts were recorded for 30 min. […] The total number of scratching bouts was counted by recording the number of scratching bouts in the recorded video over 30 min of observation time.

A further data set addresses T1, MrgprX4 (Homo sapiens, UniProt Q96LA9).
T1 construct: expressed in transfected cells; host or cells: HEK293T
The data set is described as follows: DCA-induced activation of MrgprX4 in MrgprX4-expressing HEK293T cells (calcium). Type of data set: cell-based. The conditions noted are these: 30 μM, 10 min prior to 80 μM DCA. The procedure: (§1) To investigate the effect of berbamine on other pruritogenic GPCRs, we observed the effect of berbamine on histamine H1 receptor (H1R), histamine H4 receptor (H4R), MrgprC11, MrgprX4, PAR2, and TGR5.
(§2) Figure 3 Effects of berbamine on the activity of other pruritogenic GPCRs: (A,B) Effect of berbamine on histamine 1 receptor (H1R) and histamine 4 receptor (H4R). H1R- and H4R-expressing HEK293T cells were pretreated with 30 μM BBM for 10 min prior to 100 μM histamine treatment. […] (C) Effect of berbamine on PAR2. HT29 cells were pretreated with BBM for 10 min prior to 30 μM PAR2-AP treatment. […] (D) Effect of berbamine on MrgprC11. MrgprC11-expressing HEK293T cells were pretreated with BBM for 10 min prior to 100 μM […] treatment. (E) Effect of berbamine on MrgprX4. MrgprX4-expressing HEK293T cells were pretreated with BBM for 10 min prior to 80 μM DCA treatment. (F) Effect of berbamine on TGR5. TGR5 activity was measured using a YFP fluorescence quenching assay. CHO-K1 cells coexpressing TGR5 and a halide sensor YFP were pretreated with BBM and 80 μM DCA for 10 min prior to I^- treatment. Results were summarized as means ± S.E. (n = 6). NTC, nontransfected cells.
(§3) Intracellular calcium levels were measured using a Fluo-4 NW calcium assay kit (Invitrogen, Carlsbad, CA) as per the manufacturer’s protocol in HEK293T and HT29 cells. […]

For data set [1], the target named is T2, histamine H1 receptor (H1R) (Homo sapiens, UniProt P35367).
T2 construct: expressed in transfected cells; host or cells: HEK293T
The data set can be described thus: Histamine-induced activation of H1R in H1R-expressing HEK293T cells (calcium). Type of data set: cell-based. As to conditions: 30 μM compound, 10 min prior to 100 μM histamine. The protocol:
as §1, §2, §3

Details of data set [2]: method as in PMID 29100757. As to conditions: human pharmacokinetic study; cited from earlier work.
For a further data set, the target named is T3, MrgprC11 (Mus musculus, UniProt Q8CIP3).
T3 construct: expressed in transfected cells; host or cells: HEK293T
T3 sequence (Q8CIP3 1-322): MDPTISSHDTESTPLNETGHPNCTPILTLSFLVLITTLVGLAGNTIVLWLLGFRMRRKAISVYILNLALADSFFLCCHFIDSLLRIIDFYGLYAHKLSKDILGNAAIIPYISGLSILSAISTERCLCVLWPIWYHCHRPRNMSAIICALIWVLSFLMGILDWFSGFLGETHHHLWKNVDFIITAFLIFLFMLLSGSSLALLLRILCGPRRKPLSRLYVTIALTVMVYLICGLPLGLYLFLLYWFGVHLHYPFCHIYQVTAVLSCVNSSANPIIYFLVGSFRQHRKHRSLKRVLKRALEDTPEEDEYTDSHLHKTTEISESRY
The data set can be described thus: Activation of MrgprC11 in MrgprC11-expressing HEK293T cells (calcium). Type of data set: cell-based. The protocol:
as §1, §2, §3

The subject of the next data set is HEK293T cells. The data set is described as follows: Ionomycin-induced increase in intracellular calcium levels in HEK293T cells. Type of data set: cell-based. The conditions noted are these: 10 μM ionomycin, 10 min pretreatment. The procedure: To investigate whether berbamine and closantel affect calcium signaling pathways, we observed the effects of berbamine and closantel on CQ- and ionomycin-induced increases in intracellular calcium concentrations in HEK-MrgprX1 and HEK293T cells, respectively.
Figure 2 Effect of berbamine and closantel on CQ- and ionomycin-induced increases in intracellular calcium levels: (A,B) Intracellular calcium levels were measured using Fluo−4 NW in HEK293T cells expressing MrgprX1. The cells were pretreated with the indicated concentrations of berbamine (BBM) and closantel (CLS) for 10 min prior to treatment with 300 μM CQ. (C) Summary of dose-response (mean ± S.E., n = 6). (D,E) Intracellular calcium levels were increased with 10 μM ionomycin in HEK239T cells. The cells were pretreated with the indicated concentrations of BBM and CLS for 10 min before treatment with ionomycin. (F) Summary of dose–response (mean ± S.E., n = 6).
Intracellular calcium levels were measured using a Fluo-4 NW calcium assay kit (Invitrogen, Carlsbad, CA) as per the manufacturer’s protocol in HEK293T and HT29 cells. […] After 1 h of incubation, Fluo-4 fluorescence was recorded with a FLUOstar Omega microplate reader equipped with syringe pumps and custom Fluo-4 excitation/emission filters (485/538 nm). […]

Data set [3] relates to ERK1/2 phosphorylation through MrgprA3. The data set can be described thus: Immunoblot of ERK1/2 phosphorylation in HEK293T cells expressing MrgprA3. Type of data set: cell-based, mouse. The conditions noted are these: HEK-MrgprA3 cells, 30 μM BBM for 10 min prior to CQ. (A western blot detects proteins with antibodies after separation by electrophoresis.)

T1 sequence (Q96LA9 whole entry): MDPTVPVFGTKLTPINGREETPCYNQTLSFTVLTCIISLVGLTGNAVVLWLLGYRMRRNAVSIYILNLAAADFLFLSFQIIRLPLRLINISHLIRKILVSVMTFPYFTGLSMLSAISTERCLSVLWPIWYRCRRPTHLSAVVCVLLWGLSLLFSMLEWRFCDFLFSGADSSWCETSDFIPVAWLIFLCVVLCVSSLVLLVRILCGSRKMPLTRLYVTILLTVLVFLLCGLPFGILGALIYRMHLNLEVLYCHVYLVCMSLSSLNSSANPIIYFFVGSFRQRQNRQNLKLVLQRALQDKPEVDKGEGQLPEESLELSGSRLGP
T2 sequence (P35367 whole entry, species assumed): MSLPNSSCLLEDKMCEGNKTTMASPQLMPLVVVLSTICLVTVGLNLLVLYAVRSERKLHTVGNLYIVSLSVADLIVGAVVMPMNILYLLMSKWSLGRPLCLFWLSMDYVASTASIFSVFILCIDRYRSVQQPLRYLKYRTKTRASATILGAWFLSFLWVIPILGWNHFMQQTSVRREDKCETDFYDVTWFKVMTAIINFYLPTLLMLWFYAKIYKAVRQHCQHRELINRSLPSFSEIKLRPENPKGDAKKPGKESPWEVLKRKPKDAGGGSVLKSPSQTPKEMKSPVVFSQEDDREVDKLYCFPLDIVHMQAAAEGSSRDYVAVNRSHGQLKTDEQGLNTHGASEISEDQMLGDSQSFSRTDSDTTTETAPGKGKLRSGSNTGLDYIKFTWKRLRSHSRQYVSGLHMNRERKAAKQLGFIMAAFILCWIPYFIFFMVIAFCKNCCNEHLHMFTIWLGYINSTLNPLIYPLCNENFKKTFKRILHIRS

For the molecule `COc1cc2c3cc1Oc1c(OC)c(OC)cc4c1[C@@H](Cc1ccc(O)c(c1)Oc1ccc(cc1)C[C@@H]3N(C)CC2)N(C)CC4` [berbamine], the “effect on total scratching bouts induced by PAR2-AP” value in the data set on PAR2-AP-induced itch is “no significant effect”. Also, the “effect on DCA-induced activation of MrgprX4” value at MrgprX4 was “did not alter”. In data set [1], the “effect on histamine-induced activation of H1R” value was “did not affect”. Besides, the half-life (as a rule, the time needed for the level to fall by half in the phase considered) in data set [2] was 39.25 h. At MrgprC11 (30 μM, 10 min prior to 100 μM PAR2-AP), the “effect on PAR2-AP-induced activation of MrgprC11” value is listed as “did not affect”. The “inhibitory effect on the activation of MrgprC11 by BAM8-22” value at MrgprC11 (concentrations up to 30 μM, 500 nM BAM8-22) is given as “minimal inhibitory effect”. Besides, the “effect on ionomycin-induced increase in intracellular calcium levels” value in the data set with HEK293T cells is recorded as “no effect”. The “effect on CQ-induced ERK1/2 phosphorylation through MrgprA3” value in data set [3] is recorded as “significantly reduced”.
